How the values were obtained:
[1] = target: T1, S100P and RAGE (Homo sapiens, UniProt P25815); experiment: Co-immunoprecipitation of S100P and RAGE from BxPC-3 cell lysates; type: binding; details: cromolyn 100 μM
T1 construct: endogenous in cells; host or cells: BxPC-3 pancreatic adenocarcinoma cell lysate
T1 sequence (P25815 1-95): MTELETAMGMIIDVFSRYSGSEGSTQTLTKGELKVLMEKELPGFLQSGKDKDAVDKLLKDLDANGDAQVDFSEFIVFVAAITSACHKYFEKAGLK
Experimental: Receptor for advanced glycation end products (RAGE) was identified in the immunoprecipitates by immunoblotting with a goat polyclonal anti-RAGE antibody and anti-S100P as an internal control. In the lower panel, one representative blot and densitometric analysis (means and 95% confidence intervals [CIs]) of three independent experiments is shown. *P<0.001, versus IP α-S100P without cromolyn.
For co-immunoprecipitation experiments, BxPC-3 cell lysates were incubated in the absence or presence of cromolyn (100 μM) at 4° C. overnight. S100P was immunoprecipitated using a mouse monoclonal anti-S100P antibody (Transduction Laboratories, San Diego, Calif.) for 6 hours at 4° C. and IgG-immobilized beads (Pierce Biotechnology, Inc. Rockford, Ill.). Antibody-associated proteins were electrophoresed on 10% polyacrylamide gels and electrophoretically transferred to nitrocellulose membranes. Membranes were blocked in PBS/5% milk overnight at 4° C. RAGE was detected using a goat polyclonal anti-RAGE antibody (1:200, Santa Cruz, Santa Cruz, Calif.), and S100P was detected using a goat polyclonal anti-S100P antibody (1:50, R & D systems, Minneapolis, Minn.) by immunoblotting as described in Arumugam, et al., S100P stimulates cell proliferation and survival via receptor for activated glycation end products (RAGE); J. Biol. Chem. 2004 Feb. 13; 279(7):5059-65. Briefly, membranes were incubated in primary antibody for 1 hour at room temperature followed by incubation with horseradish peroxidase-labeled secondary antibody for 30 minutes at room temperature. After a thorough wash in TBS-T buffer (1M Tris-HCL pH 8.3, 3M NaCl, 0.1% Tween-20), antibody-protein complexes were detected by using a chemiluminescent substrate (GE Healthcare Bio-Sciences Corp., Piscataway, N.J.). The intensity of the band was estimated (as density units) using densitometry (GS-250 Molecular Imaging System, Bio-Rad Laboratories, Richmond, Calif.). The experiment was repeated three times.

[2] = target: T2, S100P binding with RAGE (Homo sapiens, UniProt P25815); experiment: S100P binding with RAGE ELISA (sRAGE coated plate)
T2 construct: full-length human S100P cDNA (NM_005980) was cloned into the pTrcHis2 vector; His tag
T2 sequence (P25815 1-95): T1 sequence (P25815 1-95)
Experimental: After removing un-bound S100P by washing with detergent, the bound S100P and RAGE complex was quantified by adding HRP labeled antibody against S100P. *, P=0.04 C5 μM versus cromolyn 5 μM. Two-tailed two-sample (unpaired) Student's t-tests were used to determine P values.

[3] = tested on: MPanc-96 cells; experiment: MPanc-96 cell apoptosis by flow cytometry, 72 hours; type: cell-based, human; details: 100 and 1000 nM, with or without gemcitabine 10 μM
Experimental: FIG. 11 compares the effects of cromolyn and C5 alone and in combination with gemcitabine on MPanc-96 cell apoptosis. MPanc-96 cells were treated with cromolyn or C5 (100 and 1000 nM) with (+) or without (−) gemcitabine (10 μM). Apoptosis was analyzed after 72 hours by flow cytometry.

[4] = tested on: BxPC-3 cells; experiment: Matrigel invasion assay, BxPC-3; type: cell-based; details: 24 hours; for BxPC-3 cells invaded, mean: 0 μM mean=19.3%
Experimental: FIGS. 2A-2D show the effect of cromolyn on pancreatic cancer cell invasion. Panc-1 and BxPC-3 cells were plated in Bio-coat matrigel and control chambers and cultured in serum-free culture media. After 24 hours non-invaded cells in the upper chamber were removed, and cells that invaded onto the lower surface of the membrane were counted from five adjacent fields. […] Data are expressed as the percent invasion through the matrigel matrix and membrane relative to migration through the control membrane. Means and 95% confidence intervals from three independent experiments performed in triplicate are shown. Two-tailed two-sample (unpaired) Student's t-tests were used to determine P values. Panc-1 and BxPC-3 cells were seeded in BIOCOAT matrigel invasion chambers and in control chambers without matrigel (Becton-Dickinson, Bedford, Mass.) according to the manufacturer's protocol. Panc-1 cells were seeded with S100P (100 nM) with or without cromolyn (100 μM), and BxPC-3 cells were seeded with or without cromolyn (1-100 μM). Briefly, 2.0×10^5 cells in 300 μL top solution (serum-free media) were added to each chamber and allowed to invade matrigel for 24 hours at 37° C. in a 5% CO2 atmosphere. The non-invading cells on the upper surface of membrane were removed from the chambers with a cotton swab, and the invading cells on the lower surface of the membrane were fixed and stained using a Diff-Quick stain kit (Becton Dickinson, Bedford, Mass.). After two washes with water, the chambers were allowed to air dry. The numbers of invading cells in five adjacent microscope fields per membrane were counted at 20× magnification to obtain the average number of cells per field. Data are expressed as the percent invasion through the matrigel matrix and membrane relative to the migration through the control membrane. The assays were performed three times.

[5] = tested on: SW480 cells; experiment: SW480 colon cancer cell invasion (matrigel transwell); type: cell-based; details: cromolyn 10 μM and 100 μM, 24 hours
Experimental: SW480 cells were plated on top of a layer of matrigel in a Boyden type chamber (transwell). Media containing 5% FBS was placed in the lower well and the cells were allowed to invade the matrigel layer for 24 hours in the presence of different concentrations of cromolyn.

[6] = tested on: NFκB activity in MPanc-96 cells; experiment: S100P stimulated NFκB luciferase reporter, MPanc-96; type: cell-based, human; details: S100P 100 nM, compound 1 μM, 5 hours
Experimental: MPanc-96 pancreatic cancer cell lines stably expressing an NFκB luciferase reporter were examined for the effects of S100P, cromolyn and C5. Cells were plated at 5.0×10^3 cells/well, treated for 5 hours with 100 nM of S100P, with or without cromolyn and C5 (1 μM), and activity of a luciferase gene driven by the NFkB promoter was analyzed. P=0.05 C5 versus cromolyn. Two-tailed two-sample (unpaired) Student's t-tests were used to determine P values.

## O=C(O)c1cc(=O)c2c(OCC(O)COc3cccc4oc(C(=O)O)cc(=O)c34)cccc2o1 [cromolyn, disodium 1,3-bis[(2′-carboxylatochromon-5′-yl)oxy]-2-hydroxypropane]
[1]
  co-immunoprecipitation of S100P and RAGE, difference control versus cromolyn: 25640 density units
  total amount of S100P immunoprecipitated: no effect
[1]; control mean=34040
  co-immunoprecipitation of S100P and RAGE, mean: 8410 density units
[2]
  concentration achieving the same level of S100P inhibition: 5 µM
  interaction between S100P with RAGE: blocked
[3]
  MPanc-96 cell viability: inhibit MPanc-96 cell viability
[4]; cromolyn 10 μM
  BxPC-3 cells invaded, difference versus 0 μM: 10.0%
  BxPC-3 cells invaded, mean: 9.3%
[4]; cromolyn 100 μM
  BxPC-3 cells invaded, difference versus 0 μM: 11.7%
  BxPC-3 cells invaded, mean: 7.7%
[5]
  invasiveness of SW480 cells: reduced the invasiveness
[6]
  NFκB activity in pancreatic cancer cells in vitro: inhibit NFκB activity

Reference: patent publication US8252807B2, “Methods of inhibiting the interaction between S100 and the receptor for advanced glycation end-products” (Board of Regents, The University of Texas System, priority 2007, dated 2012)
